# Results taken from patent publication US20050228180A1, “Alpha, omega-dicarboximide derivatives as useful uro-selective a1a adrenoceptor blockers” (priority 2002, published 2005).
# Counter-ions that a name gives are not always drawn.
# Columns and labels:
# [1] = molecular target: T1, α1B adrenoceptor (Rattus norvegicus, UniProt P15823); test: Radioligand binding, [3H] prazosin displacement, rat liver membranes; conditions: read-out: Affinity (Ki) α1B (Rat Liver)
# T1 construct: from tissue; host or cells: rat liver membranes
# T1 sequence (P15823 1-515): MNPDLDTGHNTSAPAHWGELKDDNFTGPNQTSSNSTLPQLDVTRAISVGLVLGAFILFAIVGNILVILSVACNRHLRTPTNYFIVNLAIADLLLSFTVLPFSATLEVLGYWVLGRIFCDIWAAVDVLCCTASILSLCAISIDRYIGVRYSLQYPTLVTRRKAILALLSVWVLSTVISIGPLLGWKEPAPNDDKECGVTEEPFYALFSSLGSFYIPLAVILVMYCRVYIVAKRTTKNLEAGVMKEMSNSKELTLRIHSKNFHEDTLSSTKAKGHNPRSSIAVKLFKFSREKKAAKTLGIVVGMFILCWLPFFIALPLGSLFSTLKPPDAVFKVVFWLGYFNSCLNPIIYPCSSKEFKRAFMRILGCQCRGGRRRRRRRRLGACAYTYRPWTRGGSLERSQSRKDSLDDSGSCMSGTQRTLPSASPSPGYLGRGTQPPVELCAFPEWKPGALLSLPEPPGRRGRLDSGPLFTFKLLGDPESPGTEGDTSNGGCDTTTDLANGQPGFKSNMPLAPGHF
# Description: (§1) Receptor binding assays were performed using native a-adrenoceptors. The affinity of different compounds for α1A and α1B adrenoceptor subtypes was evaluated by studying their ability to displace specific [^3H] prazosin binding from the membranes of rat submaxillary and liver respectively (Michel et al., Br J Pharmacol, 1989: 98:883). The binding assays were performed according to U+Prichard et al. (Eur J Pharmacol, 1978; 50:87 with minor modifications.
# (§2) Submaxillary glands were isolated immediately after sacrifice. The liver was perfused with buffer (Tris HCl 50 mM, NaCl 100 mM, 10 mM EDTA pH 7.4). The tissues were homogenised in 10 volumes of buffer (Tris HCl 50 mM, NaCl 100 mM, 10 mM EDTA pH 7.4). The homogenate was filtered through two layers of wet gauge and filtrate was centrifuged at 500 g for 10 min. The supernatant was subsequently centrifuged at 40,000 g for 45 min. The pellet thus obtained was resuspended in the same volume of assay buffer (Tris HCl 50 mM, 5 mM EDTA pH 7.4) and was stored at −70° C. until the time of assay.
# (§3) The membrane homogenates (150-250 μg protein) were incubated in 250 μl of assay buffer (Tris HCl 50 mM, EDTA 5 mM, pH 7.4) at 24-25° C. for 1 hour. Non specific binding was determined in the presence of 300 nM prazosin. The incubation was terminated by vacuum filtration over GF/B fibre filters. The filters were then washed with ice cold 50 mM Tris HCl buffer (pH 7.4). The filtermats were dried and bound radioactivity retained on filters was counted. The IC50 and Kd were estimated by using the non-linear curve-fitting program using G Pad Prism software. The value of inhibition constant Ki was calculated from competitive binding studies by using Cheng & Prusoff equation (Cheng & Prusoff, Biochem Pharmacol, 1973, 22: 3099-3108), Ki=IC50/(1+L/Kd) where L is the concentration of [^3H] prazosin used in the particular experiment (Table 1).
# [2] = molecular target: T2, α1A adrenoceptor (Rattus norvegicus, UniProt P43140); test: Radioligand binding, [3H] prazosin displacement, rat submaxillary membranes; conditions: for Ki: [3H] prazosin displacement, rat submaxillary membranes, read-out: Affinity (Ki) α1A (Rat Submaxillary); for α1B/α1A: ratio of binding affinities, rat liver / rat submaxillary
# T2 construct: from tissue; host or cells: rat submaxillary gland membranes
# T2 sequence (P43140 1-466): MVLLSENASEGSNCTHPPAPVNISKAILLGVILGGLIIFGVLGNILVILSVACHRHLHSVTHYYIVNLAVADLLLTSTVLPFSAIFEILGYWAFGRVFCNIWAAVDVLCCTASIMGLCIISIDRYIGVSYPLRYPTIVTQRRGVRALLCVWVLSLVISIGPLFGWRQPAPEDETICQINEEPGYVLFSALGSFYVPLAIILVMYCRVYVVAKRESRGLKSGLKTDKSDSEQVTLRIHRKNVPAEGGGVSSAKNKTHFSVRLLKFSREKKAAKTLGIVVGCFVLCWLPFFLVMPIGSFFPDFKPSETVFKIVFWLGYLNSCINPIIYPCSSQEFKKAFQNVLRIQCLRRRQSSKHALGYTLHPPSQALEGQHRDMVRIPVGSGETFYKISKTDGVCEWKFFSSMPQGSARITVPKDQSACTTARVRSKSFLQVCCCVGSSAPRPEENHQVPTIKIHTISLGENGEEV
# Description: as §1, §2, §3
SMILES,Ki [1] [nM],Ki [2] [nM],α1B/α1A [2],α1B/α1A ([2]; hydrochloride)
"CCOC(=O)CN(CCCN1C(=O)C2CC=CCC2C1=O)CCNc1ccccc1OC(C)C (stereo not drawn) [Compound No. 52, 2-[N-{N′-(2-Isopropoxyphenyl)aminoethyl}ethylacetate-aminopropyl]-3a,4,7,7a-tetrahydro-1H-isoindole-1,3(2H)-dione]",> 15000,351,>43,
"CC(C)Oc1ccccc1NCCN(C=O)CCCN1C(=O)C2CC=CCC2C1=O (stereo not drawn) [Compound No. 53, 2-[N-{N′-(2-Isopropoxyphenyl)aminoethyl}formylaminopropyl]-3a,4,7,7a-tetrahydro-1H-isoindole-1,3(2H)-dione]",> 15000,74,>203,
CC(C)Oc1ccccc1N1CCN(CCCN2C(=O)C3CC=CCC3C2=O)CC1=O (stereo not drawn) [Compound No. 54],> 15000,7290,>2,
"COc1ccccc1[N+]1([O-])CCN(CCCN2C(=O)CCCC2=O)CC1 [Compound No. 55, 1-[4-(2-Methoxyphenyl)piperazin-1-yl-4-N-oxide]-3-(2,6-dioxopiperidin-1-yl]propane]",3640,72,51,
"COc1ccccc1NCCNCCCN1C(=O)CCCC1=O [Compound No. 56, 1-[N-{N′-(2-Methoxyphenyl)aminoethyl}]-3-(2,6-dioxopiperidin-1-yl)aminopropane hydrochloride]",992,> 100,>10,
"COc1ccccc1NCCNCCCN1C(=O)CCCC1=O.Cl [Compound No. 57, 1-[N—N-{N′-(2-Methoxyphenyl)aminoethyl}]-3-(2,6-dioxopiperidin-1-yl)aminopropane hydrochloride]",> 1000,> 1000,1,
"CC(=O)Nc1ccc(N2CCN(CCCN3C(=O)C4CC=CCC4C3=O)CC2)c(OC(C)C)c1.Cl (stereo not drawn) [Compound No. 58, 2-[3-{4-(2-Isopropoxy-4-acetylaminophenyl)piperazin-1-yl}propyl]-3a,4,7,7a-tetrahydro-1H-isoindole-1,3(2H)-dione hydrochloride]",> 1000,160,10,
"CC(C)Oc1ccccc1N1CCN(CCCN2C(=O)C3=CC=CCC3C2=O)CC1.Cl (stereo not drawn) [Compound No. 59, 2-[3-{4-(2-Isopropoxyphenyl)piperazin-1-yl}propyl]-7,7a-dihydro-1H-isoindole-1,3(2H)-dione hydrochloride]",48,2.3,21,
"CC(C)Oc1ccccc1N1CCN(CCCN2C(=O)[C@@H]3[C@H](C2=O)[C@H]2C=C[C@@H]3O2)CC1 [Compound No. 61, 2-[3-{4-(2-Isopropoxyphenyl)piperazin-1-yl}-propyl]-exo-4,7-epoxy-3a,4,7,7a-tetrahydro-1H-isoindole-1,3(2H)-dione hydrochloride]",29,0.93,31,
"CC(C)Oc1ccccc1N1CCN(CCC(=O)N2C(=O)C3CC=CCC3C2=O)CC1.Cl (stereo not drawn) [Compound No. 62, 2-[3-{4-(2-Isopropoxyphenyl)piperazin-1-yl}-1-oxo-propyl]-3a,4,7,7a-tetrahydro-1H-isoindole-1,3(2H)-dione hydrochloride]",> 1000,> 1000,1,
"CC(C)Oc1ccccc1N1CCN(CCC(=O)N2C(=O)C3CCCCC3C2=O)CC1.Cl (stereo not drawn) [Compound No. 63, 2-[3-{4-(2-Isopropoxyphenyl)piperazin-1-yl}-1-oxo-propyl]-3a,4,5,6,7,7a-hexahydro-1H-isoindole-1,3(2H)-dione hydrochloride]",> 1000,> 100,>10,
"CC(C)Oc1ccccc1[N+]1([O-])CCN(CCCN2C(=O)C3CC=CCC3C2=O)CC1 (stereo not drawn) [Compound No. 64, 2-[3-{4-(2-Isopropoxyphenyl)piperazin-1-yl,4-N-oxide}propyl]-3a,4,7,7a-tetrahydro-1H-isoindole-1,3(2H)-dione]",870,28.5,31,
"CC(C)Oc1ccccc1N1CC[N+]([O-])(CC(O)CN2C(=O)C3CC=CCC3C2=O)CC1 (stereo not drawn) [Compound No. 65, 2-[3-{4-(2-Isopropoxyphenyl)piperazin-1-yl,1-N-oxide}2-hydroxypropyl]-3a,4,7,7a-tetrahydro-1H-isoindole-1,3(2H)-dione]",> 1000,> 1000,1,
"CCOc1ccccc1N1CCN(CCCN2C(=O)C3CC(O)C(O)CC3C2=O)CC1 (stereo not drawn) [Compound No. 66, hydrochloride]",167,5.2,,32
"CC(C)Oc1ccccc1N1CCN(CCCN2C(=O)C3CC=CCC3C2=O)C1=O (stereo not drawn) [Compound No. 67, 2-[3-{3-(2-Isopropoxyphenyl)imidazolidon-1-yl}propyl]-3a,4,7,7a-tetrahydro-1H-isoindole-1,3(2H)-dione]",> 10000,189,>53,
"CC(C)Oc1ccccc1N(CCO)CCNCCCN1C(=O)C2CC=CCC2C1=O (stereo not drawn) [Compound No. 68, 2-[N-{N′-(2-Isopropoxyphenyl)aminoethyl}aminopropyl-N′-(β-hydroxyethyl]-3a,4,7,7a-tetrahydro-1H-isoindole-1,3(2H)-dione hydrochloride]",> 10000,229,>44,
"COc1ccccc1N1CC[N+]([O-])(CC(O)CN2C(=O)CCCC2=O)CC1 (stereo not drawn) [Compound No. 69, 1-[4-(2-Methoxyphenyl)piperazin-1-yl-1-N-oxide]-3-(2,6-dioxopiperidin-1-yl]-2-hydroxypropane]",> 10000,7160,>10,
"O=C1CCCC(=O)N1CCC[N+]1([O-])CCN(c2ccccc2O)CC1 [Compound No. 70, 1-[4-(2-Hydroxyphenyl)piperazin-1-yl-1-N-oxide]-3-(2,6-dioxopiperidin-1-yl]propane]",4920,6750,0.7,
"CC(C)Oc1ccccc1N1CCN(CCCN2C(=O)C3CC=CCC3C2=O)C(=O)C1=O (stereo not drawn) [Compound No. 71, 2-[3-{4-(2-Isopropoxyphenyl)-2,3-dioxopiperazin-1-yl}-propyl]-3a,4,7,7a-tetrahydro-1H-isoindole-1,3(2H)-dione]",> 10000,> 1000,1,
"CC(C)Oc1ccccc1N1CCN(CCCN2C(=O)C3C(O)C=CC(O)C3C2=O)CC1 (stereo not drawn) [Compound No. 72, 2-[3-{4-(2-Isopropoxyphenyl)piperazin-1-yl}propyl]-4,7-dihydroxy-3a,4,7,7a-tetrahydro-1H-isoindole-1,3(2H)-dione]",142,0.54,263,
"CCN(CCCN1C(=O)C2CC=CCC2C1=O)CCNc1ccccc1OC(C)C (stereo not drawn) [Compound No. 74, 2-[N-{N′-(2-Isopropoxyphenyl)aminoethyl}ethylaminopropyl]-3a,4,7,7a-tetrahydro-1H-isoindole-1,3(2H)-dione]",> 15000,202,>74,
